Measurements reported in the kinase profiling compilation of Christmann-Franck et al. (2016).

Experiments:
Test in all cases: Caliper, Mobility shift assay off-chip
PAK7 (human) = PAK7 (human) (UniProt Q9P286)
INSRR (human) = INSRR (human) (UniProt P14616)
CHUK (human) = CHUK (human) (UniProt O15111)
PRKCG (human) = PRKCG (human) (UniProt P05129)
MAPK11 (human) = MAPK11 (human) (UniProt Q15759)
ITK (human) = ITK (human) (UniProt Q08881)
MARK2 (human) = MARK2 (human) (UniProt Q7KZI7)
CAMK2G (human) = CAMK2G (human) (UniProt Q13555)
TAOK2 (human) = TAOK2 (human) (UniProt Q9UL54)
Sequence of TAOK2 (human) (Q9UL54 whole entry, looked up): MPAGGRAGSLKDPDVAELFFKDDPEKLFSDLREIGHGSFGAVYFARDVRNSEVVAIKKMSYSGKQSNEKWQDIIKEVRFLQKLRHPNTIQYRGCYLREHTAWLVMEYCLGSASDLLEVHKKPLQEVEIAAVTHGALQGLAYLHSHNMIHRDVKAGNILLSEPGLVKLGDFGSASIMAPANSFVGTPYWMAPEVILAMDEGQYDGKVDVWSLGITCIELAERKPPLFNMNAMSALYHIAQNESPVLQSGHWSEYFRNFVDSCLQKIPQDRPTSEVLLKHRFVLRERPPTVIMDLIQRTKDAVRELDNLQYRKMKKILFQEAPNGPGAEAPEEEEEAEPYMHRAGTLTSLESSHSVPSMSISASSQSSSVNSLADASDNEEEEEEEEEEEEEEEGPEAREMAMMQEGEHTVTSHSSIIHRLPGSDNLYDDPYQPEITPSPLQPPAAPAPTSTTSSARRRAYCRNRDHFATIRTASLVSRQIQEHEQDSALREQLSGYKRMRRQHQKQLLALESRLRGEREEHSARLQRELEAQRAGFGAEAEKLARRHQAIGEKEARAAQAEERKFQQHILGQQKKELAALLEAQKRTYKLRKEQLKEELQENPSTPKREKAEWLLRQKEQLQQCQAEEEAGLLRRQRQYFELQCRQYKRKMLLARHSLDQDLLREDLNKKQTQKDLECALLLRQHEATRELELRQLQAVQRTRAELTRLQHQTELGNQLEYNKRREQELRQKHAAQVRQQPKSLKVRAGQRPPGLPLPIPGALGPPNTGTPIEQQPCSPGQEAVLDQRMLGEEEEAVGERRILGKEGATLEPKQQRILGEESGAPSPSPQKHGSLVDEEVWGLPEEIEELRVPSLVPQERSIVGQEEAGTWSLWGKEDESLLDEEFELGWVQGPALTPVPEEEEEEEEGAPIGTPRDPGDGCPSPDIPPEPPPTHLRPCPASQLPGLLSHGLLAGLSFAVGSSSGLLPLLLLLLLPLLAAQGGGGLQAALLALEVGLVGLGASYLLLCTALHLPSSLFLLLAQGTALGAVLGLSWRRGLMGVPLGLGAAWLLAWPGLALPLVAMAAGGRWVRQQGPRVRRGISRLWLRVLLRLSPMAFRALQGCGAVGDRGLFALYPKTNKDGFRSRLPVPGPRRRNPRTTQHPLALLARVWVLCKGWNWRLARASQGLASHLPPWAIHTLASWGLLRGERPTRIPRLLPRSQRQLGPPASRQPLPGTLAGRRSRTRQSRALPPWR

BRSK2 (human) = BRSK2 (human) (UniProt Q8IWQ3)
EPHB3 (human) = EPHB3 (human) (UniProt P54753)
AXL (human) = AXL (human) (UniProt P30530)
PAK2 (human) = PAK2 (human) (UniProt Q13177)
EPHB2 (human) = EPHB2 (human) (UniProt P29323)
INSR (human) = INSR (human) (UniProt P06213)
SIK2 (human) = SIK2 (human) (UniProt Q9H0K1)
PDGFRA (human) = PDGFRA (human) (UniProt P16234)
TBK1 (human) = TBK1 (human) (UniProt Q9UHD2)
BLK (human) = BLK (human) (UniProt P51451)
Sequence of BLK (human) (P51451 whole entry, looked up): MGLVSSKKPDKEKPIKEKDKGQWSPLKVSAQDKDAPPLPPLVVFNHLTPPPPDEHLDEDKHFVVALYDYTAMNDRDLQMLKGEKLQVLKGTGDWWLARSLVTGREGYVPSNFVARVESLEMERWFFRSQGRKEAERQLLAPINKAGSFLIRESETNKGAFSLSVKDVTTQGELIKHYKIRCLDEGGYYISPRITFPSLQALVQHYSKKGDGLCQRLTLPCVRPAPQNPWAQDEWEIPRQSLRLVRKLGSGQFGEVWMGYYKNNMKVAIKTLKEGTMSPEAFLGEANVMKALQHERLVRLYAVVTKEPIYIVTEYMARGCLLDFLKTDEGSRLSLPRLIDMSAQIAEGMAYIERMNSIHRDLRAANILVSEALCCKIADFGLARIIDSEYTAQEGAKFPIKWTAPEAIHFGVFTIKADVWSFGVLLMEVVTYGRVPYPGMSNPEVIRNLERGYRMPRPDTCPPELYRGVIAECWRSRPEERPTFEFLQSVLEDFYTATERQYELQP

CSF1R (human) = CSF1R (human) (UniProt P07333)
BMX (human) = BMX (human) (UniProt P51813)
Sequence of BMX (human) (P51813 whole entry, looked up): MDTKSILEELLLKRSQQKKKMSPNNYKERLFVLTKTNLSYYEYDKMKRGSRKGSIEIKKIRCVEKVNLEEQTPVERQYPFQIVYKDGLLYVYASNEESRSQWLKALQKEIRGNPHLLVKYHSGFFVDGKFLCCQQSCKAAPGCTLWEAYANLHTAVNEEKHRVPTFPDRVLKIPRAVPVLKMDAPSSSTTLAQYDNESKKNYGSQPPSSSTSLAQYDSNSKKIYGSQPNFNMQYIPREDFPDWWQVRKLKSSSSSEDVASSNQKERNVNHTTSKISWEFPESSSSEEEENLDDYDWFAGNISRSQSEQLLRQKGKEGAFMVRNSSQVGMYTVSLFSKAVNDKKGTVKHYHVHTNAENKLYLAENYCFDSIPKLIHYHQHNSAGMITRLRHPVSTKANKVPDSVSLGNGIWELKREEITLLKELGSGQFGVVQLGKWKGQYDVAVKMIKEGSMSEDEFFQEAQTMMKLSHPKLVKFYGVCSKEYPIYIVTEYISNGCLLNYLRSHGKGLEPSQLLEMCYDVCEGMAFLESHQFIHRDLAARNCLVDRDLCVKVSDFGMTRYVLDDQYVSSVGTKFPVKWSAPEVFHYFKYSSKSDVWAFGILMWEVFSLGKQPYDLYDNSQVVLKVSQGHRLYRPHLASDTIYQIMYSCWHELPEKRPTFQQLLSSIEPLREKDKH

PBK (human) = PBK (human) (UniProt Q96KB5)
Sequence of PBK (human) (Q96KB5 whole entry, looked up): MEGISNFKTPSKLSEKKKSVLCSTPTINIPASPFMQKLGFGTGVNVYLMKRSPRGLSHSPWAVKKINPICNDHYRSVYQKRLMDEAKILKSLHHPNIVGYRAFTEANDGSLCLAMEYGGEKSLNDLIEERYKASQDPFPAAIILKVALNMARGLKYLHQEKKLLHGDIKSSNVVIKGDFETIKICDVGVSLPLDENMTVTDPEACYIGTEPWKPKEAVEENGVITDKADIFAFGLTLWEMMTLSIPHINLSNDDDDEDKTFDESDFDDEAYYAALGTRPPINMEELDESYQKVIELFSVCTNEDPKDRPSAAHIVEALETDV

MAP4K4 (human) = MAP4K4 (human) (UniProt O95819)
EPHA6 (human) = EPHA6 (human) (UniProt Q9UF33)
CSNK1G2 (human) = CSNK1G2 (human) (UniProt P78368)
Sequence of CSNK1G2 (human) (P78368 whole entry, looked up): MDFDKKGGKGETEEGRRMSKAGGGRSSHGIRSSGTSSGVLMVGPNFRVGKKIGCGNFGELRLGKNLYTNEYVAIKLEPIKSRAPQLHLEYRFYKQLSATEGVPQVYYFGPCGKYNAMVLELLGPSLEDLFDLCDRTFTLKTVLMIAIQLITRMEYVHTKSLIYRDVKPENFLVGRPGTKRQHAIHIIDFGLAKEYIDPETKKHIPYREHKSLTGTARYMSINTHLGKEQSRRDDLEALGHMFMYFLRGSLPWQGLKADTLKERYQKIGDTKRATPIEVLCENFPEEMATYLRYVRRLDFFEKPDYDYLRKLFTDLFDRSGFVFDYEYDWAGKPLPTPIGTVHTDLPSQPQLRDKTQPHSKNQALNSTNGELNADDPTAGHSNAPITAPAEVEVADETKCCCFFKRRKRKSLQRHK

AURKA (human) = AURKA (human) (UniProt O14965)
PAK3 (human) = PAK3 (human) (UniProt O75914)
EPHA8 (human) = EPHA8 (human) (UniProt P29322)
FER (human) = FER (human) (UniProt P16591)
PRKACG (human) = PRKACG (human) (UniProt P22612)
DDR2 (human) = DDR2 (human) (UniProt Q16832)
IKBKB (human) = IKBKB (human) (UniProt O14920)
Sequence of IKBKB (human) (O14920 whole entry, looked up): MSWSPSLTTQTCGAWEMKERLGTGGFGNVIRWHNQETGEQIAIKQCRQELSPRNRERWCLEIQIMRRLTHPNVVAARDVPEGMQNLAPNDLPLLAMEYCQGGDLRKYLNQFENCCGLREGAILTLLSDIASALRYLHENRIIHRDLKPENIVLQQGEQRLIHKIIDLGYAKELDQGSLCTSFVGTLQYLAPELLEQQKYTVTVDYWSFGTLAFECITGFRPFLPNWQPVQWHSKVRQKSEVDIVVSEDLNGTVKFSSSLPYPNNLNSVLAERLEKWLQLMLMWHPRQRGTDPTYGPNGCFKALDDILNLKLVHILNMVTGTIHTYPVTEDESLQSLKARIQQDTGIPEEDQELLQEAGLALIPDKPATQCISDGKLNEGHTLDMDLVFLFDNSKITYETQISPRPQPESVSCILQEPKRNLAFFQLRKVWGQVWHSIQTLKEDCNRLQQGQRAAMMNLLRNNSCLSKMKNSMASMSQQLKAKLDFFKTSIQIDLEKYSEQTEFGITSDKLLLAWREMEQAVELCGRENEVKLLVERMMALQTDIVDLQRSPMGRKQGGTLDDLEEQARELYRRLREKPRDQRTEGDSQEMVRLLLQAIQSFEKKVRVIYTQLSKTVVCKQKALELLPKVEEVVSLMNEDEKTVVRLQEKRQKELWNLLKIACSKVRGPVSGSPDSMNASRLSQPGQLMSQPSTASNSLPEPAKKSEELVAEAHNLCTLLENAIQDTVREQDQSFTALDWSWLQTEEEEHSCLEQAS

ERBB2 (human) = ERBB2 (human) (UniProt P04626)
HIPK4 (human) = HIPK4 (human) (UniProt Q8NE63)

Sequence of MAPK11 (human) (Q15759 whole entry, looked up): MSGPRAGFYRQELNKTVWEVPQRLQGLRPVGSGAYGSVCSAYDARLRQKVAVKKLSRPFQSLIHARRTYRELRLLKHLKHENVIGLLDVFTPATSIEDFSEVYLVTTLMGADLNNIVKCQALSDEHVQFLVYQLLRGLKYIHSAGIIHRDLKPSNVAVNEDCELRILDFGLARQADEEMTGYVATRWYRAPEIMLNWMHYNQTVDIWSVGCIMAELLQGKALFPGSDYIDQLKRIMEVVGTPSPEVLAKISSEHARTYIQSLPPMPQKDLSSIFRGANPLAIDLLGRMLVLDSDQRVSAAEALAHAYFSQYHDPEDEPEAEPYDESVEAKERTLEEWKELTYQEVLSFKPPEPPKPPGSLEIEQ
Sequence of ITK (human) (Q08881 whole entry, looked up): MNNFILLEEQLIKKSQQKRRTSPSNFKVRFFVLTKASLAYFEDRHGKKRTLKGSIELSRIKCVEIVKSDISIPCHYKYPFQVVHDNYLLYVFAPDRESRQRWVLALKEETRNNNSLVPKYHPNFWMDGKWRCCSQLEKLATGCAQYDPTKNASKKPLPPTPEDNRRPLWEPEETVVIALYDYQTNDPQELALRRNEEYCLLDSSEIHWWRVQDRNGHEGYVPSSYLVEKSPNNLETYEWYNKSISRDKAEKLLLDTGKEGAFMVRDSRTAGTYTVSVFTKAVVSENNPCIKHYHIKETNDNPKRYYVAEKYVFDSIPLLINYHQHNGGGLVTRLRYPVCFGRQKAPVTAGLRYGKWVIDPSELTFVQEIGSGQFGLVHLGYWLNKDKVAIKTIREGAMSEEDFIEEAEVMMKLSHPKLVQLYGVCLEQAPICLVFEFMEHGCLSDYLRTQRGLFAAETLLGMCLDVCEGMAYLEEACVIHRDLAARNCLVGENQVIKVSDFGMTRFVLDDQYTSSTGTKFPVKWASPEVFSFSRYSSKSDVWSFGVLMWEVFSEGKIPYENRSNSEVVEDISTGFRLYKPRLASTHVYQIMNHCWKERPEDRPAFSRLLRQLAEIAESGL

`CNC(=O)c1ccccc1Sc1ccc2c(/C=C/c3ccccn3)n[nH]c2c1` showed an inhibition (PAK7 (human); compound 0.001 µM) of -2.5%, an inhibition (PAK7 (human); compound 0.02 µM) of 7% and an inhibition (INSRR (human); compound 0.001 µM) of -5.2%. The inhibition (INSRR (human); compound 0.02 µM) was -8.3%, the inhibition (CHUK (human); compound 0.001 µM) was -2.6% and the inhibition (CHUK (human); compound 0.02 µM) was 2.6%. For the same compound, the inhibition (PRKCG (human); compound 0.001 µM) was 1.2%, the inhibition (PRKCG (human); compound 0.02 µM) was 17.3% and the inhibition (MAPK11 (human); compound 0.001 µM) was -2.8%. For the same compound, the inhibition (MAPK11 (human); compound 0.02 µM) was -3.8%, the inhibition (ITK (human); compound 0.001 µM) was 2.8% and the inhibition (ITK (human); compound 0.02 µM) was 1.9%. For the same compound, the inhibition (MARK2 (human); compound 0.001 µM) was 3.5%, the inhibition (MARK2 (human); compound 0.02 µM) was 11.8% and the inhibition (CAMK2G (human); compound 0.001 µM) was 0.2%. For the same compound, the inhibition (CAMK2G (human); compound 0.02 µM) was -1.1%, the inhibition (TAOK2 (human); compound 0.001 µM) was -4.1% and the inhibition (TAOK2 (human); compound 0.02 µM) was -6.1%. For the same compound, the inhibition (BRSK2 (human); compound 0.001 µM) was -3.5%, the inhibition (BRSK2 (human); compound 0.02 µM) was 12.9% and the inhibition (EPHB3 (human); compound 0.001 µM) was -8%. The inhibition (EPHB3 (human); compound 0.02 µM) was -4.7%, the inhibition (AXL (human); compound 0.001 µM) was -0.8% and the inhibition (AXL (human); compound 0.02 µM) was 4.1%. For the same compound, the inhibition (PAK2 (human); compound 0.001 µM) was -3.6%, the inhibition (PAK2 (human); compound 0.02 µM) was 4.1% and the inhibition (EPHB2 (human); compound 0.001 µM) was -6.4%. It also gave an inhibition (EPHB2 (human); compound 0.02 µM) of -5.2%, an inhibition (INSR (human); compound 0.001 µM) of -0.3% and an inhibition (INSR (human); compound 0.02 µM) of -8.6%. For the same compound, the inhibition (SIK2 (human); compound 0.001 µM) was 0.7%, the inhibition (SIK2 (human); compound 0.02 µM) was -1.6% and the inhibition (PDGFRA (human); compound 0.001 µM) was 33.1%. For the same compound, the inhibition (TBK1 (human); compound 0.001 µM) was -3.3%, the inhibition (TBK1 (human); compound 0.02 µM) was -2% and the inhibition (BLK (human); compound 0.001 µM) was 0.4%. The inhibition (BLK (human); compound 0.02 µM) was -1.6%, the inhibition (CSF1R (human); compound 0.001 µM) was 13.2% and the inhibition (CSF1R (human); compound 0.02 µM) was 22.8%. For the same compound, the inhibition (BMX (human); compound 0.001 µM) was 7.1%, the inhibition (BMX (human); compound 0.02 µM) was 4.9% and the inhibition (PBK (human); compound 0.001 µM) was -7.6%. The inhibition (PBK (human); compound 0.02 µM) was -7.4%, the inhibition (MAP4K4 (human); compound 0.001 µM) was -2.3% and the inhibition (MAP4K4 (human); compound 0.02 µM) was 1.2%. For the same compound, the inhibition (EPHA6 (human); compound 0.02 µM) was 0.3%, the inhibition (CSNK1G2 (human); compound 0.001 µM) was -2.9% and the inhibition (CSNK1G2 (human); compound 0.02 µM) was -1.6%. The inhibition (AURKA (human); compound 0.001 µM) was 13.3%, the inhibition (AURKA (human); compound 0.02 µM) was 54.5% and the inhibition (PAK3 (human); compound 0.001 µM) was -1.3%. For the same compound, the inhibition (PAK3 (human); compound 0.02 µM) was 7.8%, the inhibition (EPHA8 (human); compound 0.001 µM) was -5% and the inhibition (EPHA8 (human); compound 0.02 µM) was -4.7%. It also gave an inhibition (FER (human); compound 0.001 µM) of 5.9%, an inhibition (FER (human); compound 0.02 µM) of 3.9% and an inhibition (PRKACG (human); compound 0.001 µM) of -7.2%. For the same compound, the inhibition (PRKACG (human); compound 0.02 µM) was -7.8%, the inhibition (DDR2 (human); compound 0.001 µM) was -1.6% and the inhibition (DDR2 (human); compound 0.02 µM) was 2.2%. The inhibition (IKBKB (human); compound 0.001 µM) was 5.5%, the inhibition (IKBKB (human); compound 0.02 µM) was 3.1% and the inhibition (ERBB2 (human); compound 0.001 µM) was -1.2%. For the same compound, the inhibition (ERBB2 (human); compound 0.02 µM) was -1.4%, the inhibition (HIPK4 (human); compound 0.001 µM) was -3.1% and the inhibition (HIPK4 (human); compound 0.02 µM) was 1.9%.
Work on `Cc1ccc(Nc2nccc(N(C)c3ccc4c(C)n(C)nc4c3)n2)cc1S(N)(=O)=O` yielded an inhibition (PAK7 (human); compound 0.02 µM) of 9%, an inhibition (PAK7 (human); compound 0.2 µM) of 1.3% and an inhibition (INSRR (human); compound 0.02 µM) of 0.1%. It also gave an inhibition (INSRR (human); compound 0.2 µM) of 0.3%, an inhibition (CHUK (human); compound 0.02 µM) of -1.2% and an inhibition (CHUK (human); compound 0.2 µM) of 0.9%. It also gave an inhibition (PRKCG (human); compound 0.02 µM) of 4%, an inhibition (PRKCG (human); compound 0.2 µM) of -6.3% and an inhibition (MAPK11 (human); compound 0.02 µM) of -6.7%. For the same compound, the inhibition (MAPK11 (human); compound 0.2 µM) was 0.9%, the inhibition (ITK (human); compound 0.02 µM) was 7% and the inhibition (ITK (human); compound 0.2 µM) was 2%. It also gave an inhibition (MARK2 (human); compound 0.02 µM) of 9.3%, an inhibition (MARK2 (human); compound 0.2 µM) of 12% and an inhibition (CAMK2G (human); compound 0.02 µM) of 1.9%. It also gave an inhibition (CAMK2G (human); compound 0.2 µM) of 2%, an inhibition (TAOK2 (human); compound 0.02 µM) of 3.7% and an inhibition (TAOK2 (human); compound 0.2 µM) of 22.3%. For the same compound, the inhibition (BRSK2 (human); compound 0.02 µM) was -2.2%, the inhibition (BRSK2 (human); compound 0.2 µM) was 0.4% and the inhibition (EPHB3 (human); compound 0.02 µM) was -6.1%. For the same compound, the inhibition (EPHB3 (human); compound 0.2 µM) was -4%, the inhibition (AXL (human); compound 0.02 µM) was 1.7% and the inhibition (AXL (human); compound 0.2 µM) was 10.3%. It also gave an inhibition (PAK2 (human); compound 0.02 µM) of 5.5%, an inhibition (PAK2 (human); compound 0.2 µM) of 2% and an inhibition (EPHB2 (human); compound 0.02 µM) of -1.3%. The inhibition (EPHB2 (human); compound 0.2 µM) was -2.7%, the inhibition (INSR (human); compound 0.02 µM) was 0.3% and the inhibition (INSR (human); compound 0.2 µM) was 4.5%. It also gave an inhibition (SIK2 (human); compound 0.02 µM) of 1.3%, an inhibition (SIK2 (human); compound 0.2 µM) of 5.7% and an inhibition (PDGFRA (human); compound 0.02 µM) of 65.6%. The inhibition (PDGFRA (human); compound 0.2 µM) was 95.6%, the inhibition (TBK1 (human); compound 0.02 µM) was -0.2% and the inhibition (TBK1 (human); compound 0.2 µM) was -1.1%. The inhibition (BLK (human); compound 0.02 µM) was 7.7%, the inhibition (BLK (human); compound 0.2 µM) was 22.7% and the inhibition (BMX (human); compound 0.02 µM) was 6.9%. The inhibition (BMX (human); compound 0.2 µM) was 0.9%, the inhibition (PBK (human); compound 0.02 µM) was -3.9% and the inhibition (PBK (human); compound 0.2 µM) was -9.3%. It also gave an inhibition (MAP4K4 (human); compound 0.02 µM) of 3.9%, an inhibition (MAP4K4 (human); compound 0.2 µM) of 24.6% and an inhibition (EPHA6 (human); compound 0.02 µM) of 3.8%. It also gave an inhibition (EPHA6 (human); compound 0.2 µM) of 22.3%, an inhibition (CSNK1G2 (human); compound 0.02 µM) of 1.7% and an inhibition (CSNK1G2 (human); compound 0.2 µM) of 0.3%. It also gave an inhibition (AURKA (human); compound 0.02 µM) of 11.5%, an inhibition (AURKA (human); compound 0.2 µM) of 40.7% and an inhibition (PAK3 (human); compound 0.02 µM) of 5.7%. The inhibition (PAK3 (human); compound 0.2 µM) was 2.6%, the inhibition (EPHA8 (human); compound 0.02 µM) was -1.1% and the inhibition (EPHA8 (human); compound 0.2 µM) was 10.8%. For the same compound, the inhibition (FER (human); compound 0.02 µM) was 15.1%, the inhibition (FER (human); compound 0.2 µM) was 40.1% and the inhibition (PRKACG (human); compound 0.02 µM) was -6.9%. It also gave an inhibition (PRKACG (human); compound 0.2 µM) of -6.6%, an inhibition (DDR2 (human); compound 0.02 µM) of 34.2% and an inhibition (DDR2 (human); compound 0.2 µM) of 85%. The inhibition (IKBKB (human); compound 0.02 µM) was -3.7%, the inhibition (IKBKB (human); compound 0.2 µM) was -2.6% and the inhibition (ERBB2 (human); compound 0.02 µM) was 0%. For the same compound, the inhibition (ERBB2 (human); compound 0.2 µM) was -1.5%, the inhibition (HIPK4 (human); compound 0.02 µM) was 6.8% and the inhibition (HIPK4 (human); compound 0.2 µM) was 12.3%.
